Reference: patent publication US20260217701A1, “SELECTIVE BET INHIBITORS AND USES THEREOF” (Tay Therapeutics Limited, priority 2022, published 2026)
Marks after values point to notes of the source that are not given here.

Experiments:
BET BD2 = settings: public sources, not a head-to-head trial, cited from earlier work; for BD2: comparator BET inhibitors
BRD4 BD2 = biological target: T1, BRD4 BD2 (Homo sapiens, UniProt O60885); test: NanoBRET bromodomain assay, NanoLuc-BRD4-BD2 in HEK293 cells; format: binding; settings: nanoBRET assay, given as symbol only
T1 construct: HEK293 cells were transfected using NanoLuc-BRD4-BD1 or NanoLuc-BRD4-BD2 fusion vectors
Experimental: Plates were then incubated at 37° C.+5% CO2 incubator for 2 hours.
Fold Selectivity Calculated (IC50 BD1/IC50 BD2).

anti-collagen IgG1 = test: CIA model: rat anti-collagen IgG1 levels; format: in vivo, Lewis rats; parameters: Average rat anti-collagen IgG1 levels, Mean: unit not given here; settings: Group 3 (CIA + Dexamethasone)

**Q.** Which “Selectivity (BD1/BD2)” value (BET BD2; FRET, comparator) does the source give for `CCNC(=O)c1cc2c(-c3cc(C(C)(C)O)ccc3Oc3c(C)cc(F)cc3C)cn(C)c(=O)c2[nH]1` [ABBV-744] here?
**A.** Its value is 753x (FRET).

**Q.** And the BD2 (BET BD2)?
**A.** The BD2 was 28 nM.

**Q.** Which results are given for `COCCn1cc(-c2ccccc2)c(-c2cn(C)c(=O)c3[nH]c(-c4cnn(C(F)(F)F)c4)cc23)cc1=O` [Compound B, 4-(1-(2-methoxyethyl)-2-oxo-5-phenyl-1,2-dihydropyridin-4-yl)-6-methyl-2-(1-(trifluoromethyl)-1H-pyrazol-4-yl)-1,6-dihydro-7H-pyrrolo[2,3-c]pyridin-7-one]?
**A.** Selectivity (BD1/BD2) (BRD4 BD2; higher number denotes higher selectivity): >>>>; BD2 (BRD4 BD2; lower number denotes higher potency): ≤

**Q.** Which “Average rat anti-collagen IgG1 levels, Mean” value (anti-collagen IgG1) does the source give for `C[C@@H]1C[C@H]2[C@@H]3CCC4=CC(=O)C=C[C@]4(C)[C@@]3(F)[C@@H](O)C[C@]2(C)[C@@]1(O)C(=O)CO` [Dexamethasone, dexamethasone] here?
**A.** The value was 7833.69*.

**Q.** For `CNC(=O)c1cc(C(=O)NC2CC2)cn(Cc2ccccc2)c1=O` [GSK620], which BD2 (BET BD2) is on record?
**A.** The BD2 was 79 nM.
